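Grown in 96-well plates, cells were treated for 48 hours with each compound at five concentrations. Insufficient inhibition: endpoint recorded as highest concentration tested. GI50: concentration for 50% inhibition of growth. The concentration for full growth arrest is given as TGI.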
What was measured:
Test in all cases: inhibition of tumour cell growth, NCI panel, 48 h
[1] = tested on: A498 renal
[2] = tested on: A549 NSCLC
[3] = tested on: LOX IMVI melanoma
[4] = tested on: MCF7 breast
[5] = tested on: NCI/ADR-RES ovarian
[6] = tested on: RXF 393 renal
[7] = tested on: SK-MEL-2 melanoma
[8] = tested on: SK-MEL-5 melanoma
[9] = tested on: SNB-19 CNS
[10] = tested on: T-47D breast

Row | SMILES | GI50 [1] [µM] | TGI [1] [µM] | GI50 [2] [µM] | TGI [2] [µM] | GI50 [3] [µM] | TGI [3] [µM] | GI50 [4] [µM] | TGI [4] [µM] | GI50 [5] [µM] | TGI [5] [µM] | GI50 [6] [µM] | TGI [6] [µM] | GI50 [7] [µM] | TGI [7] [µM] | GI50 [8] [µM] | TGI [8] [µM] | GI50 [9] [µM] | TGI [9] [µM] | GI50 [10] [µM] | TGI [10] [µM]
1 | O=P1(S)OC[C@H]2O[C@@H]3[C@H](F)[C@@H]2OP(O)(=S)OC[C@H]2O[C@H]([C@H](F)[C@@H]2O1)n1cnc2c(ncnc21)NC/C=C/CNc1ncnc2c1ncn23 (stereo not given in full) | 0.543 | 11.5 | > 100 | > 100 | > 100 | > 100 | > 100 | > 100 | > 100 | > 100 | 0.764 | > 100 | > 100 | > 100 | > 100 | > 100 | > 100 | > 100 | > 100 | > 100
2 | CC1=Nc2ccccc2/C1=C\c1c(C)[nH]c2ccccc12 |  | 38 |  | 73.6 |  | 62.4 |  | 18.3 |  | 38.3 |  | 33.2 |  | 47.3 |  | 28.1 |  | 35.5 |  | 29.4
3 | O=c1[nH]c2nc(NC3CCOCC3)ncc2cc1Oc1ccc(F)cc1F | > 25 | > 25 | > 25 | > 25 | > 25 | > 25 | > 25 | > 25 | > 25 | > 25 | > 25 | > 25 | > 25 | > 25 | > 25 | > 25 | > 25 | > 25 | > 25 | > 25
4 | CC(C)Cc1ccc(C(C)CC2=CCC(CN(C)C)C2=O)cc1 (stereo not given) |  | 33.4 |  | 35.2 |  | 9.84 |  | 2.78 |  | 43.7 |  | 14.3 |  | 26.9 |  | 28.9 |  | 29.5 |  | 4.7
5 | COc1ccc(C(O)c2cc3c(N)c(C(=O)Nc4cccc(Cl)c4)sc3nc2C)cc1 (stereo not given) | 0.659 | 2.38 | 1.45 | > 39.7 | 1.71 | > 40.7 | 1.11 | > 67.2 | 1.11 | > 36.1 | 0.31 | 1.76 | 1.29 | 42.7 | 1.17 | > 32 | 1.47 | > 46.8 | 1.15 | 31.9
6 | C1CC2CN(CCCN3CCOCC3)C(C1)O2 (stereo not given) |  | > 100 |  | > 100 |  | > 100 |  | > 100 |  | > 100 |  | > 100 |  | > 100 |  | > 100 |  | > 100 |  | > 100
7 | Cc1ccc(S(=O)(=O)c2nc(-c3ccccc3)oc2S(C)=O)cc1 (stereo not given) | 4.23 | 13.6 | 5.23 | 18.5 | 1.4 | 2.81 | 1.21 | 3.62 | 2.14 | 4.89 | 1.46 | 2.87 | 1.73 | 3.73 |  |  | 3.35 | 11.2 | 1.23 | 3.17
8 | Cn1cc(C2=C(c3cn(C)c4ccc(Cl)cc34)C(=O)NC2=O)c2ccccc21 | 1.75 | 7.09 | 2.12 | 16.8 | 2.74 | 11.9 | 1.25 | > 25 | 3.82 | > 23 | 3.19 | 7.76 | 1.68 | 6.65 | 3.47 | 8.28 | 8.33 | > 25 | 3.84 | 13
9 | O=C1CC(c2[nH]nc3ccccc23)C(=O)N1c1ccccc1 (stereo not given) |  | > 100 |  | > 100 |  | > 100 |  | > 100 |  | > 100 |  | > 100 |  | > 100 |  | > 100 |  | > 100 |  | > 100
10 | C=C1C(=O)OC2CC(C)C3CC(O)OC(OCC)C3(C)CC12 (stereo not given) |  | > 69.1 |  | > 96.6 |  | 17.4 |  | 26.7 |  | 39.2 |  | 28.3 |  | 29.8 |  | 31.7 |  | > 75.5 |  | 33.1
11 | CCN(c1cc(-c2ccc(CN3CCOCC3)cc2)cc(C(=O)NCc2c(C)cc(C)[nH]c2=O)c1C)C1CCOCC1 | 9.79 | 37.2 | 33.5 | > 100 | 15.9 | 30.3 | 24.2 | > 100 | 36.2 | > 100 | 16.5 | 44.7 | 16.6 | 35.8 | 16.3 | 31.7 | 37.4 | > 84.5 | 18.9 | 53.4
12 | COc1cc2c(cc1O)CC1c3c(cc(O)c(OC)c3-2)CCN1C (stereo not given) |  | > 100 |  | > 100 |  | > 100 |  | > 100 |  | > 100 |  | > 100 |  | > 100 |  | > 100 |  | > 100 |  | > 100
13 | O=c1/c(=C\c2ccc(F)cc2)sc2n1C(c1ccc(F)cc1)C1=C(N=2)c2ccc3ccccc3c2OCC1 (stereo not given) | > 100 | > 100 | > 100 | > 100 | > 100 | > 100 | > 100 | > 100 | > 100 | > 100 | > 100 | > 100 | > 100 | > 100 | > 100 | > 100 | > 100 | > 100 | > 100 | > 100
14 | Cc1c2c(c(C)c3c4c(oc13)CCCC4)C=NCC2 |  | 31.9 |  | 32.4 |  | 38.3 |  | 30.4 |  | 31.2 |  | 15.9 |  | 31.2 |  | 30.8 |  | 53.5 |  | > 100
15 | S=c1nc(N/N=C/c2ccco2)c2cn[nH]c2[nH]1 | 3.23 | 22.5 | 20 | > 100 | 58.7 | > 100 | 3.6 | > 100 | > 100 | > 100 | > 100 | > 100 | > 100 | > 100 | 28.2 | > 100 | > 100 | > 100 | 1.95 | 48.1
16 | O=C1CCC(N2C(=O)c3ccccc3C2=O)C(=O)N1 (stereo not given) | > 100 | > 100 |  | > 100 | > 100 | > 100 |  | > 100 |  | > 100 |  | > 100 |  | > 100 |  | > 100 |  | > 100 |  | > 100
17 | c1cncc(CNCc2cccnc2)c1 |  | > 100 |  | > 100 |  | > 100 |  | > 100 |  | > 100 |  | > 100 |  | > 100 |  | > 100 |  | > 100 |  | > 100
18 | CC1=Cc2ccc(C)cc2C(=O)C1=O |  | 51.6 |  | 50.2 |  | 20.7 |  | 54.5 |  | 46.8 |  | 3.27 |  | 52.9 |  | 42.2 |  | 45.2 |  | 5.36
19 | CCCCCC[C@H](C)Nc1nc2ccccc2c2occc12 | 11.3 | 25.8 | 8.3 | 26.2 | 8.61 | 21.4 | > 100 | > 100 | 0.147 | 12.8 | 12.6 | 30.6 | 14.8 | 32.6 | 3.66 | 18 | 29.7 | > 100 | 33.2 | 61.8
20 | O=C([O][Sn]([O]C(=O)c1ccccn1)([c]1ccccc1)[c]1ccccc1)c1ccccn1 | 1.87 | 6.56 | 17.6 | 31.5 | 1.4 | 2.7 | 2.67 | 13.4 | 11.8 | 24.8 | 2.77 | 13 | 2.57 | 6.26 | 12.1 | 24.4 | 15.5 | 29.1 | 1.56 | 3.33
21 | CN(C)CCSS(=O)(=O)O |  | > 100 |  | > 100 |  | > 100 |  | > 100 |  | > 100 |  | > 100 |  | > 100 |  | > 100 |  | > 100 |  | > 100
22 | COC(=O)C1C(O)C(C)C(O)C(C)C=C(C)C2=C3C(=C(C)C(=O)c4c(O)c(c(C)c(OC(C)=O)c43)NC(=O)C(C)=C/C=C\C(C)C(O)C(C)C1O)OCO2 (stereo not given) |  | 99.4 |  | > 100 |  | 43 |  | 58.7 |  | > 100 |  | 89.8 |  | 74.2 |  | 39.4 |  | > 100 |  | > 100
23 | O=C(NCCc1ccccn1)OCc1nc2nc(Cl)nc(N3CCOCC3)c2[nH]1 | 2.64 | 10.4 | 7.16 | 24.9 | 0.372 | 1.61 | 1.59 | 5.17 | 1.44 | 6.22 | 1.12 | 2.4 | 4.16 | 15.6 | 2.1 | 4.54 | 4.58 | 16.5 | 2.13 | 6.48
24 | COc1cc2c(cc1OCCCCCCN1CCN(CC(=O)Nc3ccc(Cl)cc3C(=O)c3ccccc3Cl)CC1)N=CC1CCCN1C2=O (stereo not given) | 0.535 | 1 | 0.251 | 0.765 | 0.157 | 0.305 | 0.153 | 0.321 | 0.733 | 2.48 | 0.168 | 0.324 | 0.217 | 0.556 | 0.513 | 0.942 | 0.244 | 0.632 | 0.164 | 0.415
25 | C=CC(=O)Nc1cc(N2CCN(CC)CC2)ccc1Nc1cc(N(C)C(=O)Nc2c(Cl)c(OC)cc(OC)c2Cl)ncn1 | 2.18 | 8.53 | 11.7 | 37.6 | 2.82 | 11.9 | 2.7 | 19.2 | 20.5 | 70.5 | 2.98 | 9.76 | 13 | 27.3 | 11.3 | 23.9 | 5.05 | 17.5 | 3.3 | 26.4
26 | Cc1nc(Nc2cccnc2)sc1C(=O)/C=C/c1ccc(Cl)cc1 | 49.5 | > 100 | 3.32 | > 100 | 1.83 | 3.75 | 1.92 | 10.7 | 3.03 | 11.1 | 2.43 | 5.46 | 3.97 | 18.3 | 4.59 | 35.5 | 2.31 | 5.99 | 2.57 | 29.4
27 | C1=C2CCCC3=Cc4ccccc4OC23Oc2ccccc21 | 2.76 | 13.1 | 5.87 | > 100 | 3.88 | 28 | 3.03 | 60.6 | 3.18 | 55.7 | 2.85 | 8.77 | 4.31 | 25.6 | 3.37 | 24.2 | 4.01 | > 100 | 2.46 | > 100
28 | Cc1nc2ccc(NC(=O)CCNC(=O)CCCc3ccc(CC(C(=O)O)C(=O)O)cc3)cc2s1 | > 100 | > 100 | > 100 | > 100 | > 100 | > 100 | > 100 | > 100 | > 100 | > 100 | > 100 | > 100 | > 100 | > 100 | > 100 | > 100 | > 100 | > 100 | > 100 | > 100
29 | O=c1cc(N/N=C/c2ccc(F)cc2)c2cc(Cl)ccc2[nH]1 | 14.8 | 92.7 | 23.5 | > 100 | 25.3 | > 100 | 15.3 | > 100 | 23.5 | > 100 | 23.7 | > 100 | 18.3 | 69.3 | 3.54 | 14.1 | 23.5 | > 100 | 18.6 | > 100
